Assay results published in patent publication EP2759295A1, “Foam cell specific Liver X Receptor (LXR) alpha agonist, SIRT1 inhibitors as well as p300 inhibitors as pharmaceutically active agents” (Max-Planck-Gesellschaft zur Förderung der Wissenschaften …, priority 2013, dated 2014).
Like-named read-outs stand apart in the source and are kept apart here.

Tests used:
p300 [1] = target: T1, p300 (Homo sapiens, UniProt Q09472); experiment: MALDI-TOF MS acetylation assay; assay type: biochemical
T1 construct: purchased Biomol International, Inc. / Enzo Life Sciences
T1 sequence (Q09472 whole entry, species assumed): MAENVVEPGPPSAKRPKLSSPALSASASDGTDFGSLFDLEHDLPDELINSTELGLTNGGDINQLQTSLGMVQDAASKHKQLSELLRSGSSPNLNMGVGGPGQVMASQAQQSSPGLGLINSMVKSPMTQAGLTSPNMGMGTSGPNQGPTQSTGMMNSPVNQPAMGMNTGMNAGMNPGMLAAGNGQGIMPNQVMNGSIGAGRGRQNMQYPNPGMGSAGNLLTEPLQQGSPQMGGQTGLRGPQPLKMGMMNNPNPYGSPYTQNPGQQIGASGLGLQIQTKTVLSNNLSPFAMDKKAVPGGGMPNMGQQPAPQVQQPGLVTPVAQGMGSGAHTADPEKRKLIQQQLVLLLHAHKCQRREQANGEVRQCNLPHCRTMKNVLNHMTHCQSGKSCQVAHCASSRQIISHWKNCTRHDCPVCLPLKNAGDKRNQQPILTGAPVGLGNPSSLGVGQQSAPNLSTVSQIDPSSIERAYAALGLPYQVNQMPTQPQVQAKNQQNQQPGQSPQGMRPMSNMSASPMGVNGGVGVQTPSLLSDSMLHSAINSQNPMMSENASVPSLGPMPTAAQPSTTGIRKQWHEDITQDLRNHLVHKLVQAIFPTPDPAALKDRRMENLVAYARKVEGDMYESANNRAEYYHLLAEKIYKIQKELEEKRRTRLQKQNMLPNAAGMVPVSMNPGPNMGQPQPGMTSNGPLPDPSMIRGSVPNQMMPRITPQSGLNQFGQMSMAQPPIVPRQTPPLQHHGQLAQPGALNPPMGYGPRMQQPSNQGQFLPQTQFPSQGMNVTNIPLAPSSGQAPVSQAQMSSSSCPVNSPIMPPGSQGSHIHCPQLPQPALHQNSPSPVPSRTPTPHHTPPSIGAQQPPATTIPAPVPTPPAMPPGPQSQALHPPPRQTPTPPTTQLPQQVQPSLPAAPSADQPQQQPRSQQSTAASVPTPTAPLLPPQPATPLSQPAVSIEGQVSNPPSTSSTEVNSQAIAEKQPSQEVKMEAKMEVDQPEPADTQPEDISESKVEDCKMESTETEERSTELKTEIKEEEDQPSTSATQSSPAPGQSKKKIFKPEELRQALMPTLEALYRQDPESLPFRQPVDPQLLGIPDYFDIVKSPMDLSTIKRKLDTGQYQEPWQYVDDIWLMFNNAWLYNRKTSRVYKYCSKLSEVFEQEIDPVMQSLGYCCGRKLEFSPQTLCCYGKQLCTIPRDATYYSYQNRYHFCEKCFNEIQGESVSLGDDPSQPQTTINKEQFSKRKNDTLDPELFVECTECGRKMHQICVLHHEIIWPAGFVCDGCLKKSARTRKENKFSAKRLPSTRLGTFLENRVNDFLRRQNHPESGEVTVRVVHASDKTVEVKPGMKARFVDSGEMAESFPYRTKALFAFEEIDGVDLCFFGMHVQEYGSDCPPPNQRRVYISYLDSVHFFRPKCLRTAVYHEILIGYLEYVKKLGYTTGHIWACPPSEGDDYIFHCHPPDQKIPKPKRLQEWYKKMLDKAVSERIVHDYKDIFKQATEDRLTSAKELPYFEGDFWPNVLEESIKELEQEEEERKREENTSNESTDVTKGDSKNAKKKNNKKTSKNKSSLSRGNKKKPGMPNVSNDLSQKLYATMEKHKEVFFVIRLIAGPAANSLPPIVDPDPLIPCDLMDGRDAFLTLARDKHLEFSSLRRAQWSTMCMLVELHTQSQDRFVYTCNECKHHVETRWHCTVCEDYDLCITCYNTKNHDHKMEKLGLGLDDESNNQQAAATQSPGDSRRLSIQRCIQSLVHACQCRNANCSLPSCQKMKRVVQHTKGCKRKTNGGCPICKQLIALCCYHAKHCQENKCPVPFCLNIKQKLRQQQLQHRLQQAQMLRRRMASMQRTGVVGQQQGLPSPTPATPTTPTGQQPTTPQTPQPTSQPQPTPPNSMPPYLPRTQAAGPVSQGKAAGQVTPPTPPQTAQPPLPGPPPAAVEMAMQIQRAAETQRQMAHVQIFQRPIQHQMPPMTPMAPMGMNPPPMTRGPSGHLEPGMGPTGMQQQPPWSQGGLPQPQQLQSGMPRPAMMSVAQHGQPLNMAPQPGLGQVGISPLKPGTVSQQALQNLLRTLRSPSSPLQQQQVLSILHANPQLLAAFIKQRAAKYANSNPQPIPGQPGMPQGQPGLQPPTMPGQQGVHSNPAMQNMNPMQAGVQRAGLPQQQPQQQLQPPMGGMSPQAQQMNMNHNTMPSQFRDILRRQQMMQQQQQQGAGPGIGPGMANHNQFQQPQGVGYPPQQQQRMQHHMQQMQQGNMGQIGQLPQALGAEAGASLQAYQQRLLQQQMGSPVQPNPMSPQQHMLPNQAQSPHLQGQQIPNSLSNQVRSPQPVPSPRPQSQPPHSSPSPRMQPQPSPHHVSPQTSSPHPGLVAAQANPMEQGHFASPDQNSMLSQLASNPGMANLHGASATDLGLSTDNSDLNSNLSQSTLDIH
Procedure: Reactions were started by adding 0.5 µM HAT peptide and 120 µM AcCoA and incubated for 60 min at 30°C. After incubation at 30°C for up to 60 min, reactions were stopped by formic acid (f.c. 2%). Reaction buffer consisted of 50 mM HEPES (pH 7.9), 0.1 mM EDTA and 50 µg/mL BSA.
(§1) Acetylated and deacetylated peptides were mixed at different ratios in the respective buffer including stop solution and reaction components except the enzyme. Purification, preparation and MS detection were conducted in parallel to reaction samples. CCs were generated for IC50 value determination but not for the screening.
(§2) Peptides were purified by Oasis HLB µElution Plates using a vacuum manifold [S. Sauer et al. J Chromatogr A (2004), 1049, 9-16]. Plate columns were conditioned by 70% ACN and equilibrated with 0.1% TFA. Samples were loaded, desalted by 0.1 % TFA and H2O and eluted in 70% ACN.
(§3) For ultra thin layer (UTL), supernatant of saturated CHCA in ACN / H2O (2:1) and 0.1% TFA. was mixed with isopropanol (1:3) and was spread on a ground steel target. After solvent evaporated excess of CHCA was removed from target surface with a tissue [D. Fenyo et al. J Vis Exp (2007), 192]. The matrix used for sample preparation contained saturated CHCA in ACN / 0.1% TFA (1:2) or ACN / H2O (1:2) depending on peptide size [S. L. Cohen et al. Anal Chem (1996), 68, 31-37]. HLB eluted samples and matrix were mixed (1:4) and spotted on the UTL.
(§4) Samples were measured automatically (AutoXecute software, Bruker Daltonik GmbH) using an ultraflex II MALDI-TOF mass spectrometer (Bruker Daltonik GmbH) in positive ion reflector mode. Laser power and detector gain were adjusted prior to every automatic run, which were performed in random walk movement.
(§5) For assay optimization and IC50 determination, 1000 shots were accumulated in 100 satisfactory shot steps (fuzzy control). At least one peak within a defined mass range had to fulfill the following criteria for the spectra to be accumulated: Absolute (min.) intensity: 800; S/N: 15; peak width: 0.2.
(§6) A script (Bruker Daltonik GmbH) was employed to analyze peptide peaks in a batch process (flexAnalysis software, Version 3.0, Bruker Daltonik GmbH). Percentage of de-/acetylation were calculated using the sum of the first four monoisotopic peak intensities. CC was generated by plotting experimental vs. calculated peptide acetylation. Measured sample values were interpolated with CC to determine de-/acetylation values (GraphPad Prism). When no CC was created, peak intensity ratios were generated. Verified single NP screening hits had to pass a peak ratio of ≤ 0.1 (deac/ac).
(§7) As IC50 values were not gained at initial velocity conditions, values were corrected by a conversion factor according to Wu et al. (Table 5) [G. Wu et al. J Biomol Screen (2003), 8, 694-700].

p300 [2] = target: T1, p300; experiment: radioactivity based assay (Reaction Biology Corp.); assay type: biochemical
Excerpt: IC50 for NP 9 was also validated by a radioactivity based assay, and performed by Reaction Biology Corp. (RBC).

THP-1 cells = experiment: TNFalpha ELISA in LPS-treated THP-1 cells; assay type: cell-based, human; conditions: 10 µM, LPS for 5 hours
Procedure: THP-1 cells were seeded in a 24-well plate (1.2 x 10^6 cells/well) in a volume of 0.4 mL. Cells were treated with 10 µM NP 9 or DMSO (VC). After 1 h, 10 ng/mL LPS (Sigma, cat.no. L5293) were added and incubated for another 5 h. Medium was separated from the cells by centrifugation and used for detection of TNFalpha release by a human TNF alpha ELISA Kit [V. M. Nayagam et al. J Biomol Screen (2006), 11, 959-967].

SIRT1 = target: T2, SIRT1 (Homo sapiens, UniProt Q96EB6); experiment: MALDI-TOF MS deacetylation assay; assay type: biochemical
T2 construct: purchased Biomol International, Inc. / Enzo Life Sciences / BlueSky BioTech
T2 sequence (Q96EB6 1-747): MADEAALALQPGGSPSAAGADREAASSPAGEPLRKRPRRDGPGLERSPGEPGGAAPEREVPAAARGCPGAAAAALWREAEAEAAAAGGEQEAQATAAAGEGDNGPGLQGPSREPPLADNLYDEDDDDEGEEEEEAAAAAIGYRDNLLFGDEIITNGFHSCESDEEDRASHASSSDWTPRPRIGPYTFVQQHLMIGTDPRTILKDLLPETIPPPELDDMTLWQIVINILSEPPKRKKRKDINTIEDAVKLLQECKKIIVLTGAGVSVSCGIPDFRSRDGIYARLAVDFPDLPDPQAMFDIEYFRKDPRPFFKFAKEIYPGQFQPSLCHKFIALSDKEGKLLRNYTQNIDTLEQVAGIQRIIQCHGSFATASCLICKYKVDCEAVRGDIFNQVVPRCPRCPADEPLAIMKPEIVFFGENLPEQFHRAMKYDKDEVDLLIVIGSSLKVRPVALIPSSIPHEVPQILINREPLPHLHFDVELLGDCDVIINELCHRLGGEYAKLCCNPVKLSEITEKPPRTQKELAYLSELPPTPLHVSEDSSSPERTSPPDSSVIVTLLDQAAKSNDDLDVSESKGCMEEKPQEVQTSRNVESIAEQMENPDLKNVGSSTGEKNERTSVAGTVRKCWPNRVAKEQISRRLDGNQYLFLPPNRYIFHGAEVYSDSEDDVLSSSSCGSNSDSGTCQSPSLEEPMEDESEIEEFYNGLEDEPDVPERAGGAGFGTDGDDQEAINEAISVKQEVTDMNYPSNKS
Procedure: The assay was performed in a 20 µL reaction. 0.5 µM acetylated peptide and 120 µM NAD^+ in reaction buffer (50 mM Tris-acetate (pH 8), 137 mM NaCl, 2.7 mM KCI, 1 mM MgCl2, 5 mM DTT, 0.05 % BSA) were mixed with compound or DMSO (VC). Reactions were initiated by adding 10 nM of SIRT1. After incubation for 30 min at 37°C, reactions were stopped by formic acid and nicotinamide (f.c. 1% and 5 mM, respectively). Reactions were performed with histone H4 peptide and 1% DMSO unless stated otherwise. […]
as §1, §2, §3, §4, §5, §6, §7

[3] = target: T3, LXRα ligand binding domain (LBD) (Homo sapiens, UniProt Q13133); experiment: dual luciferase reporter gene assay with LXRα ligand binding domain in HEK-293 cells; assay type: cell-based; conditions: +DMSO
T3 construct: expressed in transfected cells; host or cells: HEK-293
T3 sequence (Q13133 164-447): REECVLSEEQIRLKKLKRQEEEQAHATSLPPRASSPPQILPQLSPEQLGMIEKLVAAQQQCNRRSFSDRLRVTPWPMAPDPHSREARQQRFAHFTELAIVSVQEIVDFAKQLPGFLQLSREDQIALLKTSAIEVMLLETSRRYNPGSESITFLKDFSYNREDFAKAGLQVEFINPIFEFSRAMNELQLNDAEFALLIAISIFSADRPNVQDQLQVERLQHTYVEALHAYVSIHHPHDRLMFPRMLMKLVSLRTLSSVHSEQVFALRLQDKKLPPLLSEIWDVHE
Procedure: The ligand binding domain (LBD) of LXRα (amino acids 164 to 447) or LXRβ (amino acids 154 to 461) was cloned into pBIND [Renilla/Amp] vector (Promega). Selection and amplification were performed in E-coli cells. Purification of the plasmids was performed with a plasmid purification kit (Qiagen). For transfection HEK-293 cells were plated in 96-well plates (TPP) at a density of 3.5 x 10^4 cells/well for 24 h. To investigate the ligand binding on LXRα ligand binding domain, 0.04 ng of renilla luciferase coding plasmide pGL4.75 (Promega), 0.04 ng of LXRα-LBD/GAL4-DBD plasmide and 80 ng of firefly luciferase coding plasmide pGL4.31 (Promega) were used in a total volume of 200 µL for each well. In LXRβ binding assay 40 ng of LXRβ-LBD/GAL4-DBD plasmide were applied in each transfection mix. Transfection was carried out for 4 h with Lipofectamine 2000 Transfection Reagent (Invitrogen) in Opti-MEM medium (Invitrogen). Ligand treatment was performed at different concentrations for 24 h. For lysis and detection dual-luciferase reporter gene assay system (Promega) and POLARstar Omega (BMG LABTECH) were used.

p300 [4] = target: T1, p300; conditions: literature (Balasubramanyam et al.); cited from earlier work
[5] = corrected by conversion factor according to Wu et al., read-out: Corrected IC50
[6] = uncorrected, not at initial velocity conditions, read-out: Obtained IC50'
[7] = Table 3, corrected values (see Table 5), read-out: IC50 values

Row | IC50 (SIRT1; [7]) [µM] | IC50 (SIRT1; [5]) [µM] | IC50 (SIRT1; [6]) [µM] | Compound | further results
1 | 28 ± 9 | 28 ± 9 | 39 ± 13 | COc1c(-c2c(O)cc(O)c3c(=O)cc(-c4ccc(O)cc4)oc23)c(O)cc2oc(-c3ccc(O)cc3)cc(=O)c12 [NP 2, 5',7,7'-trihydroxy-2,2'-bis(4-hydroxyphenyl)-5-methoxy-6,8'-bi(4H-chromene)-4,4'-dione] | –
2 | 36 ± 6 | 36 ± 6 | 50 ± 8 | O=c1cc(-c2ccc(O)c(-c3c(O)cc(O)c4c(=O)cc(-c5ccc(O)cc5)oc34)c2)oc2cc(O)cc(O)c12 [NP 3, 8-(5-(5,7-dihydroxy-4-oxo-4H-chromen-2-yl)-2-hydroxyphenyl)-5,7-dihydroxy-2-(4-hydroxyphenyl)-4H-chromen-4-one] | –

Further lines, the compound ahead of its results:

Row | Compound | IC50 (SIRT1; [7]) [µM] | IC50 (SIRT1; [5]) [µM] | IC50 (SIRT1; [6]) [µM] | further results
3 | CC(C)=CCc1c(O)cc(O)c2c(=O)c(O)c(-c3ccc(O)c(O)c3)oc12 [NP 9, 2-(3,4-dihydroxyphenyl)-3,5,7-trihydroxy-8-(3-methylbut-2-enyl)-4H-chromen-4-one] | – | – | – | IC50 (p300 [1]; MALDI MS assay, read-out: IC50 value): 1.71 µM; IC50 (p300 [1]; [5]): 1.71 ± 0.07 µM; times stronger than anacardic acid (p300 [1]; p300 IC50 comparison): about 4 times; times stronger than garcinol (p300 [1]; p300 IC50 comparison): about 3.5 times; IC50 (p300 [1]; [6]): 2.35 ± 0.09 µM; IC50 (p300 [2]): 2.1 µM; levels of TNFα secreted (THP-1 cells): significant anti-inflammatory effects by reducing the levels of TNFα
4 | O=C1CC(c2ccccc2)Oc2c(Cc3cccc(O)c3O)c(O)c(Cc3cccc(O)c3O)c(O)c21 (stereo not shown) [NP 4, 6,8-bis(2,3-dihydroxybenzyl)-5,7-dihydroxy-2-phenylchroman-4-one] | 46 ± 4 | 46 ± 4 | 63 ± 5 | –
5 | CC(C)CC[C@@H](O)[C@@H](C)[C@H]1CC[C@H]2[C@@H]3CC=C4C[C@@H](O)CC[C@]4(C)[C@H]3CC[C@]12C [22R, 22(R)-hydroxycholesterol] | – | – | – | EC50 ([3]; LXRα reporter gene activation): 13.3 µM; Efficacy ([3]; reporter gene transcription vs. T09): 4%
6 | COC1C(OC(N)=O)C(O)C(Oc2ccc(-c3coc4cc(O)cc(O)c4c3=O)cc2)OC1(C)C (stereo not shown) [NP 5, 6-(4-(5,7-dihydroxy-4-oxo-4H-chromen-3-yl)phenoxy)-5-hydroxy-3-methoxy-2,2-dimethyl-tetrahydro-2H-pyran-4-yl carbamate] | 49 ± 3 | 49 ± 3 | 68 ± 4 | –
7 | CCCCCCCCCCCCCCCc1cccc(O)c1C(=O)O [anacardic acid] | – | – | – | IC50 (p300 [4]): 8.5 µM
